One may read the viability, T/C as the ratio of treated to control.

SMILES strings stand for the structures.
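Note: luminescent signal used as a stand-in for viable cell amount; spheroids exposed to compounds for seven days before the viability read; 100% = DMSO vehicle control wells.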

In the first assay the test system is 186277-243-T-J2-PDC complex spheroid growth. The assay can be described thus: Anticancer human tumor 186277-243-T-J2-PDC patient-derived colon adenocarcinoma cell line growth inhibition [AhR]. Particulars: second compound 0.1 µM; first compound 0.316 µM; stronger effect = lower value. In outline: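 Complex tumor spheroids co-cultured with HUVEC and human MSC stroma; AhR antagonists tested in combination with standard-of-care and investigational agents. Top concentration at or near clinical Cmax (else 10 microM), half-log dilutions; growth expressed as percent test/control.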
Regarding `Nc1ncn(C2CC(O)C(CO)O2)c(=O)n1` (centres undefined) + Cc1cncc(-c2nc(NCCc3c[nH]c4ccccc34)c3ncn(C(C)C)c3n2)c1, the viability, T/C is 147%.

The assay is the same for the next values; noted with them: second compound 0.1 µM; first compound 1 µM; stronger effect = lower value.
For the molecule `CC(C)c1c(-c2ccccc2)nc2c(C#N)c[nH]n2c1=O` + Cc1ccccc1N=Nc1ccc(NC(=O)c2ccnn2C)c(C)c1, the viability, T/C is 105%.
On to `CC1COCCN1c1cc(-c2ccnn2C)c2ccnc(-c3ccn[nH]3)c2n1` (centres undefined) + Cc1ccccc1N=Nc1ccc(NC(=O)c2ccnn2C)c(C)c1, for which the viability, T/C was 8.07%.
On the same count and under the same terms, in the case of `COc1ccc([C@@H](O)c2cc(-c3ncnc4cc(N5CCOCC5)ccc34)c(F)cc2Cl)nn1` + Cc1ccccc1N=Nc1ccc(NC(=O)c2ccnn2C)c(C)c1 it was 80.2%; in that of `COc1cccc2c1C(=O)c1c(O)c3c(c(O)c1C2=O)CC(O)(C(=O)CO)CC3OC1CC(N)C(O)C(C)O1` (centres undefined) + Cc1cncc(-c2nc(NCCc3c[nH]c4ccccc34)c3ncn(C(C)C)c3n2)c1, 0.46%; in that of `Nc1ncn(C2CC(O)C(CO)O2)c(=O)n1` (centres undefined) + Cc1cncc(-c2nc(NCCc3c[nH]c4ccccc34)c3ncn(C(C)C)c3n2)c1, 143%.

The assay is the same for the next values; noted with them: second compound 0.1 µM; first compound 3.16 µM; stronger effect = lower value.
On to `CC(C)c1c(-c2ccccc2)nc2c(C#N)c[nH]n2c1=O` + Cc1ccccc1N=Nc1ccc(NC(=O)c2ccnn2C)c(C)c1, for which the viability, T/C is 109%.
The same measure, in the same setting: then `COc1ccc([C@@H](O)c2cc(-c3ncnc4cc(N5CCOCC5)ccc34)c(F)cc2Cl)nn1` + Cc1ccccc1N=Nc1ccc(NC(=O)c2ccnn2C)c(C)c1, with 89.6%; and `COc1cccc2c1C(=O)c1c(O)c3c(c(O)c1C2=O)CC(O)(C(=O)CO)CC3OC1CC(N)C(O)C(C)O1` (centres undefined) + Cc1cncc(-c2nc(NCCc3c[nH]c4ccccc34)c3ncn(C(C)C)c3n2)c1, with 0.03%.

Still in this assay, the particulars now being: second compound 0.1 µM; first compound 10 µM; stronger effect = lower value.
Consider `CC(C)c1c(-c2ccccc2)nc2c(C#N)c[nH]n2c1=O` + Cc1ccccc1N=Nc1ccc(NC(=O)c2ccnn2C)c(C)c1, for which the viability, T/C was 97.5%.
The same measure, in the same setting: then `COc1ccc([C@@H](O)c2cc(-c3ncnc4cc(N5CCOCC5)ccc34)c(F)cc2Cl)nn1` + Cc1ccccc1N=Nc1ccc(NC(=O)c2ccnn2C)c(C)c1, with 55.8%; and `COc1cccc2c1C(=O)c1c(O)c3c(c(O)c1C2=O)CC(O)(C(=O)CO)CC3OC1CC(N)C(O)C(C)O1` (centres undefined) + Cc1cncc(-c2nc(NCCc3c[nH]c4ccccc34)c3ncn(C(C)C)c3n2)c1, with 0.25%.

The same assay, now with this note: second compound 0.316 µM; first compound 0.00316 µM; stronger effect = lower value.
As to `CC1COCCN1c1cc(-c2ccnn2C)c2ccnc(-c3ccn[nH]3)c2n1` (centres undefined) + Cc1ccccc1N=Nc1ccc(NC(=O)c2ccnn2C)c(C)c1, the viability, T/C is 97.5%.
On to `Nc1ncn(C2CC(O)C(CO)O2)c(=O)n1` (centres undefined) + Cc1cncc(-c2nc(NCCc3c[nH]c4ccccc34)c3ncn(C(C)C)c3n2)c1, for which the viability, T/C is 120%.

Still in this assay, the particulars now being: second compound 0.316 µM; first compound 0.01 µM; stronger effect = lower value.
As to `CC1COCCN1c1cc(-c2ccnn2C)c2ccnc(-c3ccn[nH]3)c2n1` (centres undefined) + Cc1ccccc1N=Nc1ccc(NC(=O)c2ccnn2C)c(C)c1, the viability, T/C was 102%.
Still for that read-out and setting: then `Nc1ncn(C2CC(O)C(CO)O2)c(=O)n1` (centres undefined) + Cc1cncc(-c2nc(NCCc3c[nH]c4ccccc34)c3ncn(C(C)C)c3n2)c1, with 93.6%.

The same assay, now with this note: second compound 0.316 µM; first compound 0.0316 µM; stronger effect = lower value.
With `CC(C)c1c(-c2ccccc2)nc2c(C#N)c[nH]n2c1=O` + Cc1ccccc1N=Nc1ccc(NC(=O)c2ccnn2C)c(C)c1, the viability, T/C is 103%.
On the same count and under the same terms, then `CC1COCCN1c1cc(-c2ccnn2C)c2ccnc(-c3ccn[nH]3)c2n1` (centres undefined) + Cc1ccccc1N=Nc1ccc(NC(=O)c2ccnn2C)c(C)c1, with 93.9%.
On the same count and under the same terms, then `COc1ccc([C@@H](O)c2cc(-c3ncnc4cc(N5CCOCC5)ccc34)c(F)cc2Cl)nn1` + Cc1ccccc1N=Nc1ccc(NC(=O)c2ccnn2C)c(C)c1, with 96.5%; and `COc1cccc2c1C(=O)c1c(O)c3c(c(O)c1C2=O)CC(O)(C(=O)CO)CC3OC1CC(N)C(O)C(C)O1` (centres undefined) + Cc1cncc(-c2nc(NCCc3c[nH]c4ccccc34)c3ncn(C(C)C)c3n2)c1, with 110%.
Same read-out and setting: in the case of `Nc1ncn(C2CC(O)C(CO)O2)c(=O)n1` (centres undefined) + Cc1cncc(-c2nc(NCCc3c[nH]c4ccccc34)c3ncn(C(C)C)c3n2)c1 it was 107%.

Still in this assay, the particulars now being: second compound 0.316 µM; first compound 0.1 µM; stronger effect = lower value.
Take `CC(C)c1c(-c2ccccc2)nc2c(C#N)c[nH]n2c1=O` + Cc1ccccc1N=Nc1ccc(NC(=O)c2ccnn2C)c(C)c1: the viability, T/C was 104%.
The same measure, in the same setting: in the case of `CC1COCCN1c1cc(-c2ccnn2C)c2ccnc(-c3ccn[nH]3)c2n1` (centres undefined) + Cc1ccccc1N=Nc1ccc(NC(=O)c2ccnn2C)c(C)c1 it was 42.4%; in that of `COc1ccc([C@@H](O)c2cc(-c3ncnc4cc(N5CCOCC5)ccc34)c(F)cc2Cl)nn1` + Cc1ccccc1N=Nc1ccc(NC(=O)c2ccnn2C)c(C)c1, 104%; in that of `COc1cccc2c1C(=O)c1c(O)c3c(c(O)c1C2=O)CC(O)(C(=O)CO)CC3OC1CC(N)C(O)C(C)O1` (centres undefined) + Cc1cncc(-c2nc(NCCc3c[nH]c4ccccc34)c3ncn(C(C)C)c3n2)c1, 70.4%.
The same measure, in the same setting: in the case of `Nc1ncn(C2CC(O)C(CO)O2)c(=O)n1` (centres undefined) + Cc1cncc(-c2nc(NCCc3c[nH]c4ccccc34)c3ncn(C(C)C)c3n2)c1 it was 113%.

The same assay, now with this note: second compound 0.316 µM; first compound 0.316 µM; stronger effect = lower value.
For `CC(C)c1c(-c2ccccc2)nc2c(C#N)c[nH]n2c1=O` + Cc1ccccc1N=Nc1ccc(NC(=O)c2ccnn2C)c(C)c1, the viability, T/C was 103%.
`CC1COCCN1c1cc(-c2ccnn2C)c2ccnc(-c3ccn[nH]3)c2n1` (centres undefined) + Cc1ccccc1N=Nc1ccc(NC(=O)c2ccnn2C)c(C)c1: the viability, T/C is 9.54%.
On the same count and under the same terms, then `COc1ccc([C@@H](O)c2cc(-c3ncnc4cc(N5CCOCC5)ccc34)c(F)cc2Cl)nn1` + Cc1ccccc1N=Nc1ccc(NC(=O)c2ccnn2C)c(C)c1, with 93.6%; and `COc1cccc2c1C(=O)c1c(O)c3c(c(O)c1C2=O)CC(O)(C(=O)CO)CC3OC1CC(N)C(O)C(C)O1` (centres undefined) + Cc1cncc(-c2nc(NCCc3c[nH]c4ccccc34)c3ncn(C(C)C)c3n2)c1, with 28.2%; and `Nc1ncn(C2CC(O)C(CO)O2)c(=O)n1` (centres undefined) + Cc1cncc(-c2nc(NCCc3c[nH]c4ccccc34)c3ncn(C(C)C)c3n2)c1, with 137%.

The same assay, now with this note: second compound 0.316 µM; first compound 1 µM; stronger effect = lower value.
Turning to `CC(C)c1c(-c2ccccc2)nc2c(C#N)c[nH]n2c1=O` + Cc1ccccc1N=Nc1ccc(NC(=O)c2ccnn2C)c(C)c1, the viability, T/C is 98%.
Still for that read-out and setting: in the case of `CC1COCCN1c1cc(-c2ccnn2C)c2ccnc(-c3ccn[nH]3)c2n1` (centres undefined) + Cc1ccccc1N=Nc1ccc(NC(=O)c2ccnn2C)c(C)c1 it was 7.22%.
As to `COc1ccc([C@@H](O)c2cc(-c3ncnc4cc(N5CCOCC5)ccc34)c(F)cc2Cl)nn1` + Cc1ccccc1N=Nc1ccc(NC(=O)c2ccnn2C)c(C)c1, the viability, T/C was 80%.
Still for that read-out and setting: in the case of `COc1cccc2c1C(=O)c1c(O)c3c(c(O)c1C2=O)CC(O)(C(=O)CO)CC3OC1CC(N)C(O)C(C)O1` (centres undefined) + Cc1cncc(-c2nc(NCCc3c[nH]c4ccccc34)c3ncn(C(C)C)c3n2)c1 it was 0.27%; in that of `Nc1ncn(C2CC(O)C(CO)O2)c(=O)n1` (centres undefined) + Cc1cncc(-c2nc(NCCc3c[nH]c4ccccc34)c3ncn(C(C)C)c3n2)c1, 150%.

Still in this assay, the particulars now being: second compound 0.316 µM; first compound 3.16 µM; stronger effect = lower value.
On to `CC(C)c1c(-c2ccccc2)nc2c(C#N)c[nH]n2c1=O` + Cc1ccccc1N=Nc1ccc(NC(=O)c2ccnn2C)c(C)c1, for which the viability, T/C was 112%.
As to `COc1ccc([C@@H](O)c2cc(-c3ncnc4cc(N5CCOCC5)ccc34)c(F)cc2Cl)nn1` + Cc1ccccc1N=Nc1ccc(NC(=O)c2ccnn2C)c(C)c1, the viability, T/C is 86.4%.
Still for that read-out and setting: in the case of `COc1cccc2c1C(=O)c1c(O)c3c(c(O)c1C2=O)CC(O)(C(=O)CO)CC3OC1CC(N)C(O)C(C)O1` (centres undefined) + Cc1cncc(-c2nc(NCCc3c[nH]c4ccccc34)c3ncn(C(C)C)c3n2)c1 it was 0.04%.

The same assay, now with this note: second compound 0.316 µM; first compound 10 µM; stronger effect = lower value.
Take `CC(C)c1c(-c2ccccc2)nc2c(C#N)c[nH]n2c1=O` + Cc1ccccc1N=Nc1ccc(NC(=O)c2ccnn2C)c(C)c1: the viability, T/C was 98%.
Still for that read-out and setting: in the case of `COc1ccc([C@@H](O)c2cc(-c3ncnc4cc(N5CCOCC5)ccc34)c(F)cc2Cl)nn1` + Cc1ccccc1N=Nc1ccc(NC(=O)c2ccnn2C)c(C)c1 it was 52.2%; in that of `COc1cccc2c1C(=O)c1c(O)c3c(c(O)c1C2=O)CC(O)(C(=O)CO)CC3OC1CC(N)C(O)C(C)O1` (centres undefined) + Cc1cncc(-c2nc(NCCc3c[nH]c4ccccc34)c3ncn(C(C)C)c3n2)c1, 0.22%.

Still in this assay, the particulars now being: second compound 1 µM; first compound 0.00316 µM; stronger effect = lower value.
For the molecule `CC1COCCN1c1cc(-c2ccnn2C)c2ccnc(-c3ccn[nH]3)c2n1` (centres undefined) + Cc1ccccc1N=Nc1ccc(NC(=O)c2ccnn2C)c(C)c1, the viability, T/C is 98.8%.
Still for that read-out and setting: then `Nc1ncn(C2CC(O)C(CO)O2)c(=O)n1` (centres undefined) + Cc1cncc(-c2nc(NCCc3c[nH]c4ccccc34)c3ncn(C(C)C)c3n2)c1, with 98.5%.

Source of the values: PubChem BioAssay AID1918991 (Molecular Pharmacology Branch, DTP, NCI, 2023).
